≈ marks a conversion by molar mass, not a printed value. Where two headings read alike, the source gives them in different places.
What was measured:
[1] = Solubility in PBS; format: physicochemical
Summary of the method: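 HPLC quantitation of peptide remaining in the PBS supernatant after ultracentrifugation, referenced to a 50 μM solution in DMSO.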

[2] = CHI Log D procedure; format: physicochemical; conditions: for CHI Log D: pH 7.4; for chromatographic logD: pH 7.4, CHI Log D
[3] = biological target: T1, full-length beta-Catenin (Uniprot ID P35222) (Homo sapiens, UniProt P35222); experiment: Fluorescence polarization IC50 (beta-catenin / 5FAM-TCF4 10-53 competition); format: binding
T1 construct: 10 nM full-length beta-Catenin (Uniprot ID P35222)
T1 sequence (P35222 1-781): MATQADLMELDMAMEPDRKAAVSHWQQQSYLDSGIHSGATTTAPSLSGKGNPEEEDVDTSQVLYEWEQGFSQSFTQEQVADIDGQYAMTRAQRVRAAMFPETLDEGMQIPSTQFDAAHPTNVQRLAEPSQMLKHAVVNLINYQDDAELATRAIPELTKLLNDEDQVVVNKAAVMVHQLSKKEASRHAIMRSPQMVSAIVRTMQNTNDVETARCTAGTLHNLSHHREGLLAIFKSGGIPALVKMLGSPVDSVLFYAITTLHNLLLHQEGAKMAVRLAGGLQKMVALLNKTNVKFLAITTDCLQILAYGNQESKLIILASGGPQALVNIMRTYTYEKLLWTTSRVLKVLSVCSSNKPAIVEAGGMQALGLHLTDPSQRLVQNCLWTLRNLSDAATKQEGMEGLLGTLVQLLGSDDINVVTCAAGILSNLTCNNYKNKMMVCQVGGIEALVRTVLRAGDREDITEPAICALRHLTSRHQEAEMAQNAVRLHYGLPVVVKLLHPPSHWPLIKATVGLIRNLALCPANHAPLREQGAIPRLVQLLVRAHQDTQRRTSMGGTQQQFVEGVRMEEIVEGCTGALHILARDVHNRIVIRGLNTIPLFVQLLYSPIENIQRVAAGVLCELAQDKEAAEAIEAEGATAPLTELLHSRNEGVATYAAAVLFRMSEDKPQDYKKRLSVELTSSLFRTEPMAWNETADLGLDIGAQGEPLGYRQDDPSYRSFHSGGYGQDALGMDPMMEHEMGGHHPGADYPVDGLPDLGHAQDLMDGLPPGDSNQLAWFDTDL

[4] = fluorescence polarization, read-out: beta-Catenin FP IC50

CC[C@H](C)[C@@H]1NC(=O)[C@H](CC(=O)O)NC(=O)[C@]2(CC=CCCCC3(CCCC=CCCCCCC[C@@](C)(C(=O)N[C@@H](Cc4ccccc4)C(=O)N[C@@H](Cc4csc5ccccc45)C(=O)N[C@H](C(N)=O)C(C)C)NC(=O)[C@H](CCC(N)=O)NC(=O)[C@H](Cc4ccccc4)NC(=O)[C@H](C)NC(=O)[C@H](C)NC(=O)[C@H](CCC(=O)O)NC(=O)[C@H](CC(=O)O)NC3=O)NC1=O)CCCN2C(C)=O (stereo partly drawn) [I-646, Ac-PL3-Asp-Ile-B5-Asp-Glu-Ala-Ala-Phe-Gln-S8-Phe-BztA-Val-NH2]
Solubility [1]: 41 µM (≈ 76 µg/mL) | CHI Log D [2]: 2.694 | IC50 [3, 4]: 0.461 µM | IC50 ([3]; read-out: FP EC50): 0.461 µM

CC(=O)N1CCC[C@]12CC=CCCCC1(CCCC=CCCCOC(=O)N3CC[C@@](C(=O)N[C@@H](Cc4ccccc4Cl)C(=O)N[C@@H](Cc4csc5ccccc45)C(=O)N[C@@H](CCC(N)=O)C(N)=O)(C3)NC(=O)[C@H](CC(N)=O)NC(=O)[C@H](Cc3ccccc3)NC(=O)[C@H](Cc3ccccc3)NC(=O)[C@H](C)NC(=O)[C@H](CN(CC(=O)O)CC(F)(F)F)NC(=O)[C@H](CC(=O)O)NC1=O)NC(=O)[C@H](CC(C)(C)C)NC(=O)[C@H](CC(=O)O)NC2=O (stereo partly drawn) [I-1003, Ac-PL3-Asp-Npg-B5-Asp-TfeGA-Ala-Phe-Phe-Asn-PyrS2-2C1F-BztA-Gln-NH2]
Solubility [1]: 10 µM (≈ 21.3 µg/mL) | chromatographic logD [2]: 2.54 | IC50 ([3]; read-out: beta-Catenin FP IC50): 0.038 µM

CC(=O)N1CCC[C@]12CC=CCCCC1(CCCC=CCCCCCC[C@@](C)(C(=O)N[C@@H](Cc3ccccc3)C(=O)N[C@@H](Cc3c[nH]c4ccccc34)C(=O)N[C@@H](CCC(N)=O)C(N)=O)NC(=O)[C@H](C(C)C)NC(=O)[C@H](Cc3ccsc3)NC(=O)[C@H](C)NC(=O)[C@H](C)NC(=O)[C@H](CC(=O)O)NC(=O)[C@H](CC(=O)O)NC1=O)NC(=O)[C@H](C)NC(=O)[C@H](CC(=O)O)NC2=O (stereo partly drawn) [I-326, Ac-PL3-Asp-Ala-B5-Asp-Asp-Ala-Ala-3Thi-Val-S8-Phe-Trp-Gln-NH2]
Solubility ([1]; Solubility (uM)): 34 µM (≈ 60.8 µg/mL) | chromatographic logD [2]: 1.97 | IC50 ([3]; Table E2-1, read-out: beta-Catenin FP IC50): 1.75 µM

CC[C@H](C)[C@@H]1NC(=O)[C@H](CC(=O)O)NC(=O)[C@]2(CC=CCCCC3(CCCC=CCCCCCC[C@@](C)(C(=O)N[C@@H](Cc4ccccc4)C(=O)N[C@@H](Cc4csc5ccccc45)C(=O)N[C@@H](CCC(N)=O)C(N)=O)NC(=O)[C@H](CCC(N)=O)NC(=O)[C@H](Cc4ccccc4)NC(=O)[C@H](Cc4c[nH]c5ccccc45)NC(=O)[C@H](C)NC(=O)[C@H](CCC(=O)O)NC(=O)[C@H](CC(=O)O)NC3=O)NC1=O)CCCN2C(C)=O (stereo partly drawn) [I-664, Ac-PL3-Asp-Ile-B5-Asp-Glu-Ala-Trp-Phe-Gln-S8-Phe-BztA-Gln-NH2]
Solubility [1]: 45 µM (≈ 89.9 µg/mL) | CHI Log D [2]: 2.433 | IC50 [3, 4]: 0.996 µM | IC50 ([3]; read-out: FP EC50): 0.996 µM

CC[C@H](C)[C@@H]1NC(=O)[C@H](CC(=O)O)NC(=O)[C@]2(CC=CCCCC3(CCCC=CCCCCCC[C@@](C)(C(=O)N[C@@H](Cc4ccccc4)C(=O)N[C@@H](Cc4csc5ccccc45)C(=O)N[C@@H](CCC(N)=O)C(N)=O)NC(=O)[C@H](CCC(N)=O)NC(=O)[C@H](Cc4ccccc4)NC(=O)[C@H](CC(C)C)NC(=O)[C@H](C)NC(=O)[C@H](CCC(=O)O)NC(=O)[C@H](CC(=O)O)NC3=O)NC1=O)CCCN2C(C)=O (stereo partly drawn) [I-659, Ac-PL3-Asp-Ile-B5-Asp-Glu-Ala-Leu-Phe-Gln-S8-Phe-BztA-Gln-NH2]
Solubility [1]: 48 µM (≈ 92.4 µg/mL) | CHI Log D [2]: 2.903 | IC50 [3, 4]: 0.43 µM | IC50 ([3]; read-out: FP EC50): 0.43 µM

CC(=O)N1CCC[C@]12CC=CCCCC1(CCCC=CCCCCCC[C@@](C)(C(=O)N[C@@H](Cc3ccccc3)C(=O)N[C@@H](Cc3csc4ccccc34)C(=O)N[C@@H](CCC(N)=O)C(N)=O)NC(=O)[C@H](CC(N)=O)NC(=O)[C@H](Cc3cccs3)NC(=O)[C@H](C)NC(=O)[C@H](C)NC(=O)[C@H](CCC(=O)O)NC(=O)[C@H](CC(=O)O)NC1=O)NC(=O)[C@H](C)NC(=O)[C@H](CC(=O)O)NC2=O (stereo partly drawn) [I-446, Ac-PL3-Asp-Ala-B5-Asp-Glu-Ala-Ala-2Thi-Asn-S8-Phe-BztA-Gln-NH2]
Solubility [1]: 44 µM (≈ 80.7 µg/mL) | CHI Log D [2]: 1.97 | IC50 [3, 4]: 0.13 µM | IC50 ([3]; read-out: FP EC50): 0.13 µM

CC(=O)N1CCC[C@]12CC=CCCCC1(CCCC=CCCCOC(=O)N3CC[C@@](C(=O)N[C@@H](Cc4ccccc4Cl)C(=O)N[C@@H](Cc4csc5ccccc45)C(=O)N[C@@H](C(N)=O)[C@H](C)O)(C3)NC(=O)[C@H](CC(C)C)NC(=O)[C@H](Cc3ccccc3)NC(=O)[C@H](C)NC(=O)[C@H](C)NC(=O)[C@H](CCC(=O)O)NC(=O)[C@H](CC(=O)O)NC1=O)NC(=O)[C@H](CC(C)(C)C)NC(=O)[C@H](CC(=O)O)NC2=O (stereo partly drawn) [I-1039, Ac-PL3-Asp-Npg-B5-Asp-Glu-Ala-Ala-Phe-Leu-PyrS2-2C1F-BztA-dThr-NH2]
Solubility ([1]; Solubility (uM)): 20 µM (≈ 38.7 µg/mL) | chromatographic logD [2]: 2.65 | IC50 ([3]; read-out: beta-Catenin FP IC50): 0.057 µM

CC(=O)N1CCC[C@]12CC=CCCCC1(CCCC=CCCCOC(=O)N3CC[C@@](C(=O)N[C@@H](Cc4ccsc4)C(=O)N[C@@H](Cc4csc5ccccc45)C(N)=O)(C3)NC(=O)[C@H](CC(N)=O)NC(=O)[C@H](Cc3ccccc3)NC(=O)[C@H](C)NC(=O)[C@H](C)NC(=O)[C@H](CCCNC(N)=O)NC(=O)[C@H](CC(=O)O)NC1=O)NC(=O)[C@H](CC(C)(C)C)NC(=O)[C@H](CC(=O)O)NC2=O (stereo partly drawn) [I-861, Ac-PL3-Asp-Npg-B5-Asp-Cit-Ala-Ala-Phe-Asn-PyrS2-3Thi-BztA-NH2]
Solubility ([1]; Solubility (uM)): 20 µM (≈ 36.6 µg/mL) | chromatographic logD [2]: 2.55 | IC50 ([3]; read-out: beta-Catenin FP IC50): 0.04 µM

CC(=O)N1CCC[C@]12CC=CCCCC1(CCCC=CCCCCCC[C@@](C)(C(=O)N[C@@H](Cc3ccccc3)C(=O)N[C@@H](Cc3csc4ccccc34)C(=O)N[C@@H](Cc3c[nH]cn3)C(N)=O)NC(=O)[C@H](CCC(N)=O)NC(=O)[C@H](Cc3ccccc3)NC(=O)[C@H](C)NC(=O)[C@H](C)NC(=O)[C@H](CCC(=O)O)NC(=O)[C@H](CC(=O)O)NC1=O)NC(=O)[C@H](C)NC(=O)[C@H](CC(=O)O)NC2=O (stereo partly drawn) [I-418, Ac-PL3-Asp-Ala-B5-Asp-Glu-Ala-Ala-Phe-Gln-S8-Phe-BztA-His-NH2]
Solubility [1]: 32 µM (≈ 59.2 µg/mL) | CHI Log D [2]: 2.089 | IC50 [3, 4]: 0.149 µM | IC50 ([3]; read-out: FP EC50): 0.149 µM

CC[C@@H]1NC(=O)[C@H](CC(=O)O)NC(=O)[C@]2(CC=CCCCC3(CCCC=CCCCCCC[C@@](C)(C(=O)N[C@@H](Cc4ccccc4)C(=O)N[C@@H](Cc4csc5ccccc45)C(=O)N[C@@H](CCC(N)=O)C(N)=O)NC(=O)[C@H](CC(N)=O)NC(=O)[C@H](Cc4ccccc4)NC(=O)[C@H](C)NC(=O)[C@H](C)NC(=O)[C@H](CCC(=O)O)NC(=O)[C@H](CC(=O)O)NC3=O)NC1=O)CCCN2C(C)=O (stereo partly drawn) [I-474, Ac-PL3-Asp-Abu-B5-Asp-Glu-Ala-Ala-Phe-Asn-S8-Phe-BztA-Gln-NH2]
Solubility [1]: 50 µM (≈ 92.1 µg/mL) | CHI Log D [2]: 2.114 | IC50 [3, 4]: 0.043 µM | IC50 ([3]; read-out: FP EC50): 0.043 µM

CC(=O)N1CCC[C@]12CC=CCCCC1(CCCC=CCCCCCC[C@@](C)(C(=O)N[C@@H](Cc3ccccc3)C(=O)N[C@@H](Cc3csc4ccccc34)C(=O)N[C@@H](CCC(N)=O)C(N)=O)NC(=O)[C@H](CCC(N)=O)NC(=O)[C@H](Cc3ccccc3)NC(=O)[C@H](C)NC(=O)[C@H](C)NC(=O)[C@H](Cc3nn[nH]n3)NC(=O)[C@H](CC(=O)O)NC1=O)NC(=O)[C@H](C)NC(=O)[C@H](CC(=O)O)NC2=O (stereo partly drawn) [I-413, Ac-PL3-Asp-Ala-B5-Asp-tetz-Ala-Ala-Phe-Gln-S8-Phe-BztA-Gln-NH2]
Solubility ([1]; Solubility (uM)): 31 µM (≈ 57.4 µg/mL) | chromatographic logD [2]: 2 | IC50 [3, 4]: 0.09 µM

CC(=O)N1CCC[C@]12CC=CCCCC1(CCCC=CCCCCCC[C@@](C)(C(=O)N[C@@H](Cc3ccsc3)C(=O)N[C@@H](Cc3csc4ccccc34)C(=O)N[C@@H](CCC(N)=O)C(N)=O)NC(=O)[C@H](CCC(N)=O)NC(=O)[C@H](Cc3ccccc3)NC(=O)[C@H](C)NC(=O)[C@H](C)NC(=O)[C@H](CCC(=O)O)NC(=O)[C@H](CC(=O)O)NC1=O)NC(=O)[C@H](C)NC(=O)[C@H](CC(=O)O)NC2=O (stereo partly drawn) [I-426, Ac-PL3-Asp-Ala-B5-Asp-Glu-Ala-Ala-Phe-Gln-S8-3Thi-BztA-Gln-NH2]
Solubility [1]: 33 µM (≈ 61 µg/mL) | CHI Log D [2]: 1.959 | IC50 [3, 4]: 0.109 µM | IC50 ([3]; read-out: FP EC50): 0.109 µM

CC[C@H](C)[C@@H]1NC(=O)[C@H](CC(=O)O)NC(=O)[C@]2(CC=CCCCC3(CCCC=CCCCCCC[C@@](C)(C(=O)N[C@@H](Cc4ccccc4)C(=O)N[C@@H](Cc4csc5ccccc45)C(N)=O)NC(=O)[C@H](CCC(N)=O)NC(=O)[C@H](Cc4ccccc4)NC(=O)[C@H](C)NC(=O)[C@H](C)NC(=O)[C@H](CCC(=O)O)NC(=O)[C@H](CC(=O)O)NC3=O)NC1=O)CCCN2C(C)=O (stereo partly drawn) [I-409, Ac-PL3-Asp-Ile-B5-Asp-Glu-Ala-Ala-Phe-Gln-S8-Phe-BztA-NH2]
Solubility [1]: 48 µM (≈ 84.2 µg/mL) | CHI Log D [2]: 2.741 | IC50 [3, 4]: 0.07 µM | IC50 ([3]; read-out: FP EC50): 0.07 µM
